Experimental data published in US20040220249A1, “Prevention of surgical adhesions using selective COX-2 inhibitors” (Children's Medical Center Corporation, priority 2003, published 2004).

Assays:
[1] = system: intra-abdominal adhesion formation; experiment: Intra-abdominal adhesion model (laparotomy, cecal abrasion, silicone patch), adhesion score; format: in vivo, mice (C57BL/6); conditions: for intra-abdominal adhesion score (total, 0-16): 10 days after surgery, oral treatment for 10 days from day of surgery, mean +/- SEM, control 13.6+/-0.49; for decrease of intra-abdominal adhesion formation: FIG. 2, versus control mice; for intra-abdominal adhesion score (total, 0-16), durability: treated for 10 days, observed an additional 25 days before sacrifice (day 35), control 13.4+/-1.0
Procedure: Seven to eight week-old male C57BL/6 mice (Jackson Laboratories, Bar Harbor, Me.) were housed five animals to a cage in a barrier room. Mice were acclimated to their environment for at least 72 hours prior to the initiation of each experiment and allowed food and water ad libitum. Animal protocols complied with the NIH Animal Research Advisory Committee guidelines and were approved by the Children's Hospital Institutional Animal Care and Use Committee. A standard adhesion model was performed as previously described (Chiang 2000). Specifically, a 5.0 mm×5.0 mm square piece of sterile silicone (Dow Corning, Midland, Mich.) was secured intra-abdominally to the right abdominal wall, lateral to the epigastric vessels, with two 7-0 proline sutures under isoflurane anesthesia. The cecum then was gently rubbed with two cotton swabs to promote adhesion formation.
After recovering from anesthesia, groups of mice were treated with either oral methylcellulose alone (100 μl, control) or an experimental drug mixed in 100 μl methylcellulose beginning on the day of surgery for 10 days. […] Mice treated with COX-2 selective inhibitors received either celecoxib (68 mg/kg orally twice a day) or rofecoxib (40 mg/kg orally once a day) (Laudanno 2001).
Ten and 35 days after surgery, mice were euthanized and adhesion formation over the silicone patch was measured by two blinded individuals based on a previously described scoring system (Chiang S, et al. J Ped Surg. 2000, 35, 189-196). The tenacity, type, and extent of adhesions to the patch, as well as the extent of adhesions to the cecum were graded on a scale of 0 to 4. The total adhesion score was the sum of the four individual scores (see table 1, below). A minimum score was 0 and the maximum score was 16. Tenacity was rated as none (0), adhesions fell apart (1), lysed with traction (2), lysed with blunt dissection (3), lysed with sharp dissection (4). Type was scored as none (0), filmy (1), mildly dense (2), moderately dense (3), very dense (4). Extent was measured as the percent of the patch covered by adhesion: 0% (0), <25% (1), 25-50% (2), 50-75% (3), >75% (4). Cecal adhesions were graded as none (0), adhesions fell apart (1), lysed with traction (2), lysed with blunt dissection (3), lysed with sharp dissection (4).

[2] = system: endothelium (CD31/PECAM-1) of granulation tissue; experiment: Microvessel density of granulation tissue surrounding the silicone patch (CD31 immunostaining, image analysis); format: in vivo, mice (C57BL/6); conditions: day 10; CD31-stained area as proportion of total area; mean ± SEM; control 6.4±0.6
Procedure: Silicone patches and abdominal wall were fixed at 4 degrees Celsius in 10% formalin overnight and washed with phosphate buffered saline. The specimens were then embedded in paraffin and 5 micron sections were cut. Endothelial cells were identified by antibody staining against the endothelial cell surface antigen CD31 (PECAM-1) and a diaminobenzidine chromogen (BD Biosciences Pharmingen, San Diego, Calif.). After deparaffinization and rehydration, sections were incubated with proteinase K (Roche, Basel, Switzerland) for 30 min at 37° C. Non-specific binding sites were blocked for 30 min at room temperature with TNB blocking buffer (NEN Life Sciences, Boston, Mass.). Primary CD31 antiserum (Pharmingen) was added to the sections overnight at 4° C. Slides were washed twice with phosphate buffered saline and secondary goat anti-mouse IgG antibody (Vector Laboratories, Burlingame, Calif.) was then added for 30 min at room temperature. After again washing twice with PBS the slides were incubated with streptavidin alkaline phosphatase solution (1:100) (Perkin-Elmer Life Sciences, Boston, Mass.) for 30 min at room temperature followed by biotinyl tyramide amplification dilutent (1:50) (Perkin-Elmer Life Sciences) for 10 min. After repeat incubation with alkaline phosphatase solution (1:100), for 30 min at room temperature, the chromagen, Vector Novar substrate kit (Vector Laboratories) was added. Slides were lightly counterstained with hematoxylin for imaging.
Sections were taken from the abdominal wall, patch, and lesions at sacrifice on day 10. To quantitate vessel density, CD31 immunostained sections underwent digital image analysis using a Nikon Eclipse TE300 inverting photomicroscope with an attached Spot RT (Diagnostic Instruments Inc.) video camera linked to a personal computer. Images were imported directly to the image analysis program IP Lab (Scanalytics Inc., Fairfax, Va.). Sequential images were grabbed at 200× for the […] sections without overlapping. To calculate the volume fraction of stained regions, a color threshold was chosen for each image that distinguished between the stained areas and background. The proportion of the selected color was calculated as a percentage of total area and used as a measure of vessel density. Sections from 3 different mice for each of the study groups were examined and vascularization was scanned and quantified in 5 representative fields per section.

[3] = system: adhesions; conditions: cited from earlier work

Row | SMILES | intra-abdominal adhesion score (total, 0-16) [1] | microvessel density of granulation tissue surrounding the silicone patch [2] | decrease of intra-abdominal adhesion formation [1] | intra-abdominal adhesion score (total, 0-16), durability [1] | side-effects ([3]; literature) | inhibition of adhesions ([3]; murine model (Chiang 2001)) | macroscopic adhesion formation over the silicone patch (photograph) ([1]; 10 days after laparotomy, cecal abrasions and silicone patch placement, FIG. 1)
1 | COc1ccc2cc([C@H](C)C(=O)O)ccc2c1 [naproxen] | 8.4+/−2.2 | – | – | – | – | – | –
2 | COc1ccc2c(c1)c(CC(=O)O)c(C)n2C(=O)c1ccc(Cl)cc1 [indomethacin] | 7.3+/−1.7 | 11.3±1.5 | – | – | – | – | –
3 | CS(=O)(=O)c1ccc(C2=C(c3ccccc3)C(=O)OC2)cc1 [rofecoxib] | 3.6+/−1.1 | 7.9±0.6 | 91% | – | – | – | –
4 | CC(C)Cc1ccc(C(C)C(=O)O)cc1 (stereo not shown) [ibuprophen] | 7.8+/−1.4 | 9.9±1.1 | – | – | – | – | –
5 | Cc1ccc(-c2cc(C(F)(F)F)nn2-c2ccc(S(N)(=O)=O)cc2)cc1 [celecoxib] | 1.36+/−0.5 | 3.8±0.8 | 74% | 1.5+/−0.9 | – | – | –
6 | CO[C@@H]1[C@H](OC(=O)NC(=O)CCl)CC[C@]2(CO2)[C@H]1[C@@]1(C)O[C@@H]1CC=C(C)C [TNP-470] | – | – | – | – | absence of healing of abdominal wounds | inhibit adhesions | –
7 | CC(=O)Oc1ccccc1C(=O)O [aspirin] | 13.8+/−0.4 | 13.3±1.0 | no effect | 12.2+/−1.2 | – | – | dense adhesion formation over the silicone patch
